Laboratory results: patent US8071652B2, “Method of treating irritable bowel syndrome” (The Board of Regents of the University of Texas System, priority 2003, dated 2011)
Entries after “also recorded” stand apart in the source; their conditions may differ.

How the values were obtained:
sensitized rats = experiment: Colorectal distention (CRD) sensitivity in visceral sensitization model; type: in vivo, rat
Description: New born rats were sensitized by infusion of 0.2 mls of 0.5% acetic acid into the colon at P10, control animals received saline.
At eight weeks of age, rats in four treatment groups: control+vehicle (n=3), control+cni-1493 (n=3), sensitized+vehicle (n=8), sensitized+cni-1493 (n=8) were tested after administration of drug (dissolved in 2.5% mannitol, injected i.p. at 5mg/kg for four days) for sensitivity to colorectal distention (CRD). Vehicle injected animals received 2.5% mannitol in water.
For electromyographic (EMG) measurements of visceromotor responses, under anesthesia (Nembutal, 50 mg/kg i.p.), two electrodes were implanted in the abdominal wall muscles and externalized behind the head. Rats were allowed a one week recovery time from this surgery. Under mild sedation (Brevital, […]), a 7 cm flexible balloon constructed from a surgical glove finger attached to tygon tubing was inserted into the descending colon and rectum via the anus and held in place by taping the tubing to the tail. Rats were housed in small Lucite cubicles (20×8×8 cm) and were allowed to adapt for one hour. CRD was performed by rapidly inflating the balloon to constant pressure. Pressure was measured using a sphygmomanometer connected to a pressure transducer. Rats were given graded CRD (20, 40, 60, 80 mm Hg) applied for 20 seconds every 4 minutes. […]

Myeloperoxidase (MPO) = Myeloperoxidase (MPO) assay of colon extracts; type: in vivo, rat; details: sensitized rats, 5 mg/kg i.p. for four days
Description: Descending colons were placed in 10% buffered formalin and portions were frozen for myeloperoxidase (MPO) assays. Haematoxilin & Eosin stained parafin sections will be scored for inflammation by a pathologist.
Myeloperoxidase (MPO) assays were performed as described (Bhatia et al., Proc Natl Acad Sci USA 95:4760-4756, 1998). Frozen colon was homogenized in 20 mM phosphate buffer pH 7.4 and cetrifuged at 10,000× g for 10 minutes at 4° C. Pellet was resuspended in 50 mM phosphate buffer, pH 6.0 containing 0.5% hexadecyltrimethylammonium bromide. Samples were subjected to one cycle of freeze thawing, were incubated at 6° C. for 2 hrs and cetrifuged at 10,000× g for 5 min at 4° C. Change in absorbance at 655 nm was measured in reaction mix containing 1.6 mM TMB (Sigma) and 0.3 mM H2O2 on a Beckman DU-64 spectrophotometer. Activity was normalized to protein as measured in the extracts. Protein was measured by the BCA method (Pierce, Rockford, Ill.). Activity was expressed as the change in absorbance/min/mg protein.

SMILES: CC(=NN=C(N)N)c1cc(NC(=O)CCCCCCCCC(=O)Nc2cc(C(C)=NN=C(N)N)cc(C(C)=NN=C(N)N)c2)cc(C(C)=NN=C(N)N)c1.Cl.Cl.Cl.Cl [CNI-1493, N,N′-bis[3,5-diacetylphenl] decanediamidetetrakis[amidinohydrazone] tetrahvdrochloride]
- Chronic visceral hypersensitivity (CVH) (sensitized rats; sensitized animals, CNI1493 treatment): ameliorates CVH
- Sensitivity to CRD (sensitized rats; sensitized rats, 5 mg/kg i.p. for four days, graded CRD, vs vehicle, 5 mg/kg): significant effect; also recorded: significantly reduced
- MPO activity in colon (Myeloperoxidase (MPO)): significantly lowered
